Experimental data from ChEMBL document CHEMBL1201862, “PubChem BioAssay data set” (2004).
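Protocol summary: plate cells (96-well), add compound at 5 concentrations, incubate 48 h, interpolate endpoints linearly. GI50: concentration for 50% inhibition of growth.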 The source made the active and inactive calls. Cut-off read from the data, not from the text of the source: active = GI50 up to about 1.1 µM and inactive = higher. Residues, ends and D or L forms follow the SMILES beside them. *: point of attachment. Cbz = O=C(OCc1ccccc1)*

Legend:
Assay in all cases: NCI-60 cell line screen, 48 h
SK-OV-3 = system: SK-OV-3
NCI-H226 = system: NCI-H226
SF-295 = system: SF-295
HOP-92 = system: HOP-92
OVCAR-8 = system: OVCAR-8
LOX IMVI = system: LOX IMVI
HL-60 = system: HL-60
SW-620 = system: SW-620
CCRF-CEM = system: CCRF-CEM
DU-145 = system: DU-145
A498 = system: A498
MCF7 = system: MCF7
M14 = system: M14
IGROV-1 = system: IGROV-1
U-251 = system: U-251
OVCAR-5 = system: OVCAR-5
HCT-116 = system: HCT-116
SK-MEL-5 = system: SK-MEL-5
RPMI-8226 = system: RPMI-8226
Malme-3M = system: Malme-3M

Measured: GI50

CC(=O)OC[C@@]12C[C@H]3C(=O)C(C)(C)C[C@H]3[C@]1(C)[C@@H](OC(C)=O)[C@]1(O)[C@H]([C@@H](OC(=O)c3ccccc3)[C@@H](C)[C@H]1OC(C)=O)[C@H]2OC(C)=O
inactive: SK-OV-3 > 20 µM | NCI-H226 > 20 µM | SF-295 15.3 µM | HOP-92 > 20 µM | OVCAR-8 > 20 µM | LOX IMVI > 20 µM | HL-60 4.92 µM | SW-620 > 20 µM | CCRF-CEM 6.21 µM | DU-145 > 20 µM | A498 > 20 µM | MCF7 > 20 µM | M14 > 20 µM | IGROV-1 > 20 µM | U-251 > 20 µM | OVCAR-5 > 20 µM | HCT-116 > 20 µM | SK-MEL-5 > 20 µM

CC(C)(C)OC(=O)N(CCCN)CCCCN
inactive: SK-OV-3 > 100 µM | NCI-H226 > 100 µM | SF-295 > 100 µM | RPMI-8226 > 100 µM | HOP-92 > 100 µM | OVCAR-8 > 100 µM | HL-60 > 100 µM | SW-620 > 100 µM | CCRF-CEM > 100 µM | DU-145 > 100 µM | A498 > 100 µM | MCF7 > 100 µM | M14 > 100 µM | IGROV-1 > 100 µM | U-251 > 100 µM | OVCAR-5 > 100 µM | HCT-116 > 100 µM | SK-MEL-5 > 100 µM

CCOc1cc2c(OCc3ccccc3)cc3c4cc(OC)c(OC)cc4c[n+](C)c3c2cc1OC
inactive: SK-OV-3 3.02 µM | NCI-H226 1.5 µM | SF-295 8.57 µM | RPMI-8226 2.06 µM | OVCAR-8 2.19 µM | LOX IMVI 2.07 µM | SW-620 1.47 µM | DU-145 3.62 µM | A498 22.2 µM | M14 2.03 µM | OVCAR-5 7.13 µM | HCT-116 1.56 µM | SK-MEL-5 1.38 µM
active: HOP-92 0.361 µM | Malme-3M 0.986 µM | CCRF-CEM 0.494 µM | MCF7 0.671 µM | U-251 0.601 µM

CCOC(=O)C1=CC(C)(C(=O)OCC)Nc2c(nc(N)[nH]c2=O)N1 (configuration not stated)
inactive: SK-OV-3 > 10 µM | NCI-H226 > 10 µM | SF-295 > 10 µM | RPMI-8226 > 10 µM | HOP-92 > 10 µM | OVCAR-8 > 10 µM | LOX IMVI > 10 µM | Malme-3M > 10 µM | SW-620 > 10 µM | CCRF-CEM > 10 µM | DU-145 > 10 µM | A498 > 10 µM | MCF7 > 10 µM | M14 > 10 µM | IGROV-1 > 10 µM | U-251 > 10 µM | OVCAR-5 > 10 µM | HCT-116 > 10 µM | SK-MEL-5 > 10 µM

CCOC(=O)CCC(NC(=O)OCc1ccccc1)C(=O)NC(CCC(=O)OCC)C(=O)OCC (configuration not stated) (Cbz-Glu(OEt)-Glu(OEt)-OEt; configuration not given here)
inactive: SK-OV-3 > 100 µM | NCI-H226 > 100 µM | SF-295 > 100 µM | RPMI-8226 > 100 µM | HOP-92 > 100 µM | OVCAR-8 > 100 µM | LOX IMVI > 100 µM | Malme-3M > 100 µM | SW-620 > 100 µM | CCRF-CEM > 100 µM | DU-145 > 100 µM | A498 > 100 µM | MCF7 > 100 µM | M14 > 100 µM | IGROV-1 > 100 µM | U-251 > 100 µM | OVCAR-5 > 100 µM | HCT-116 > 100 µM | SK-MEL-5 > 100 µM
